Assay results published in patent US10716791B2, “Inhibitors of peptidyl arginine deiminase (PAD) enzymes and uses thereof” (UNIVERSITY HEALTH NETWORK, priority 2015, dated 2020).
Where two headings read alike, the source gives them in different places. Blank lines part the entries; values can stand above or below the compound they belong to.

Tests used:
animal models of MS = details: cited from earlier work
PAD2 = PAD2 (Mus musculus (Mouse), UniProt Q08642); assay: Inhibition of PAD activity (Example 53), PAD2; details: for remaining activity at 100 µM / remaining activity at 1000 µM: read-out: Remaining activity of PAD2
Chain of PAD2 (Q08642 whole entry): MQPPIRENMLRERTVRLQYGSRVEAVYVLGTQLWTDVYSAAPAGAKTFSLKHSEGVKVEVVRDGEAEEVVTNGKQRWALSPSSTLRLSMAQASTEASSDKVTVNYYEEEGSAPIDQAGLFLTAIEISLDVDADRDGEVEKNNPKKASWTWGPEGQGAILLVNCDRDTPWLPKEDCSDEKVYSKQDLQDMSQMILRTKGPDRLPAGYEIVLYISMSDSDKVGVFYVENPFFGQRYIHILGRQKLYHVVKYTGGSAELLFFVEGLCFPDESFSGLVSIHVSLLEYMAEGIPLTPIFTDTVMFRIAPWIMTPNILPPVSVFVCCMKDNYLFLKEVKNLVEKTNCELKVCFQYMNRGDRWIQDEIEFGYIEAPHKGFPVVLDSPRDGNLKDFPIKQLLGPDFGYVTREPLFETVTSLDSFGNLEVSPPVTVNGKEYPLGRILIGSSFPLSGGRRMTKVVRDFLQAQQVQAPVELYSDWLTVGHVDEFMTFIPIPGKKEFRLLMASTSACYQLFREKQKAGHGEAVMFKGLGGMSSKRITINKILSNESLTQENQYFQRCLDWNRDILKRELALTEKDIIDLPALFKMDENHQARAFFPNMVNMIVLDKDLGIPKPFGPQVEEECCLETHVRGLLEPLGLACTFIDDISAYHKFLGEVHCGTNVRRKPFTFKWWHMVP
Procedure: (§1) Materials: PAD1, PAD2, PAD3 and PAD4 were purchased from commercial sources. Assay buffer: 50 mM Tris pH 7.5, 100 mM NaCl, 10 mM CaCl2, 5 mM DTT.
(§2) The inhibitor (12.5 μL of stock) was mixed with appropriate amount of substrate (BAEE) stock solution and preincubated at 37° C. for a period in the range of 0-60 min. The reaction was initiated by the addition of the enzyme. The reaction samples were incubated for a period in the range of 0-60 min. […] Samples were cooled on ice, vortexed and centrifuged. 200 μL aliquots were transferred to the 96-well plate and the absorbance was measured at 530 nm and the remaining activity was computed. The remaining activity data were plotted versus inhibitor concentration and fitted to the dose-response equation to calculate IC50.

PAD4 [1] = target: T1, PAD4 (Homo sapiens (Human), UniProt Q9UM07); assay: Inhibition of PAD activity (Example 53), PAD4; details: for remaining activity at 100 µM / remaining activity at 1000 µM: read-out: Remaining activity of PAD4; for PAD4 Ki ± std error / Ki: Table 5; for Ki: read-out: PAD4 Ki ± std error
T1 sequence (Q9UM07 whole entry): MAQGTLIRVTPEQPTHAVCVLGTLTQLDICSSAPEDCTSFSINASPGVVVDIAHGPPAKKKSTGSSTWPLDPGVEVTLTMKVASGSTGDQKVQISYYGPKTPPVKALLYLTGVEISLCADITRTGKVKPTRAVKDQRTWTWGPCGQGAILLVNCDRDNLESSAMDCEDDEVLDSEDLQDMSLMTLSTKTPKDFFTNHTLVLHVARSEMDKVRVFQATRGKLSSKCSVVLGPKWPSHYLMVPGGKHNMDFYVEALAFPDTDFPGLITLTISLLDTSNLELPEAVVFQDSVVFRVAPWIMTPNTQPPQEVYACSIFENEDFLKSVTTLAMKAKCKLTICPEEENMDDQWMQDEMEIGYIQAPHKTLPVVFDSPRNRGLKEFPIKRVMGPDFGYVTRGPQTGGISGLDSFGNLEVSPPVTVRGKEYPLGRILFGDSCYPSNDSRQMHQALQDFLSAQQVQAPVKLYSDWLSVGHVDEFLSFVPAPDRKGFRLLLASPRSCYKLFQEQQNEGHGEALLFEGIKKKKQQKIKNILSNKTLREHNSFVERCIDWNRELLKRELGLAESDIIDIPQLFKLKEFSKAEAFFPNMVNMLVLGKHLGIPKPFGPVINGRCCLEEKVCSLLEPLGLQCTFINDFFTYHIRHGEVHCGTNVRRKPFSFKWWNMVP
Procedure: as §1, §2

CHO cells = assay: CHO cell toxicity assay; format: cell-based; details: Cricetulus griseus
PAD1 [2] = target: T2, PAD1 (Homo sapiens (Human), UniProt Q9ULC6); assay: Enzyme inhibition kinetics (Example 54), hPAD1; format: biochemical; details: for Ki: Table 6
T2 sequence (Q9ULC6 whole entry): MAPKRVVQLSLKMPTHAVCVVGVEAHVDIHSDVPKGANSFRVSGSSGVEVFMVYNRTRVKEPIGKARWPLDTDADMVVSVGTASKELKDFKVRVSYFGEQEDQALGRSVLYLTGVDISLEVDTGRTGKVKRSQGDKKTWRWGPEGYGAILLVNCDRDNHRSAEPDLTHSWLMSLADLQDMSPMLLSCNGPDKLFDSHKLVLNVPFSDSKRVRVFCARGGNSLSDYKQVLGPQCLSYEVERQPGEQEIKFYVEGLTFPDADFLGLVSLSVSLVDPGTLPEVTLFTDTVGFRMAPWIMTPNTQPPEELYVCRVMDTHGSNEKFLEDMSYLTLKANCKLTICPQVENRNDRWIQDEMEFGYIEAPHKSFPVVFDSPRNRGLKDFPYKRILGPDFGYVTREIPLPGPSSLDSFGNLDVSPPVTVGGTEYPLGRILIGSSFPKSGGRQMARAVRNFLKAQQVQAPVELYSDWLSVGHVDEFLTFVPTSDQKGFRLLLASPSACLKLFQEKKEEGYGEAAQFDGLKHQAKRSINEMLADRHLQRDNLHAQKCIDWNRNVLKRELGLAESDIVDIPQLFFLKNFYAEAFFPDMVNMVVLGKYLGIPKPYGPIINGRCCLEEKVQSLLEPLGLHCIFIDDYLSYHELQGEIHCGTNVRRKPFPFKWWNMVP

mPAD2 = mPAD2 (Mus musculus (Mouse), UniProt Q08642); assay: Enzyme inhibition kinetics (Example 54), mPAD2; format: biochemical; details: for Ki: Table 6; for Selectivity ratio of inhibition, mPAD2 (PAD4): mPAD2 versus PAD4
Chain of mPAD2 (Q08642 whole entry): as the sequence (Q08642 whole entry) above

PAD1 [3] = target: T2, PAD1; assay: Inhibition of PAD activity (Example 53), PAD1; details: Table 5; for Ki: read-out: PAD1 Ki ± std error
Procedure: as §1, §2

PADs = assay: Enzymatic assays with hPAD1, mPAD2 and hPAD4, stated for PADs overall; format: biochemical; details: summary of Table 6; read-out: Ki, activity towards PADs
PAD4 [4] = target: T1, PAD4; assay: Enzyme inhibition kinetics (Example 54), hPAD4; format: biochemical; details: for Ki: Table 6
PAD enzymes = details: most potent non-peptidic compounds from the literature; cited from earlier work
[5] = read-out: PAD2 inhibition constant Ki ± Std Error, Table 1
[6] = read-out: PAD2 Ki ± std error, Table 5

Structure (SMILES): N=C(N)CCl [Compound 2CA, 2-chloroacetamidine]
- MS disease (animal models of MS; four animal models of MS): attenuated MS disease
- PAD activity in the brain (animal models of MS; four animal models of MS): decreased PAD activity in the brain
- amount of citrullinated protein (animal models of MS; four animal models of MS): decreased the amount of citrullinated protein
- disease after therapy cessation at 6 months (animal models of MS; one murine model): fully progressive clinical disease re-emerged promptly
- disease with early and prolonged administration (animal models of MS; one murine model): essentially prevented the disease

Structure (SMILES): COC(=O)[C@H](CN1CCNCC1)NC(=O)C1CCCCC1 [KP-224]
- Ki (PAD2; [5]): 21.3 ± 3.4 µM

Structure (SMILES): COC(=O)[C@H](CCN1CCNCC1)NC(=O)c1ccco1 [KP-226, (S)-Methyl 2-(furan-2-carboxamido)-4-(piperazin-1-yl)butanoate]
- Ki (PAD2; [6]): 286 ± 27 µM
- Ki (PAD2; [5]): 19.7 ± 2 µM

Structure (SMILES): O=C(N[C@@H](CN1CCNCC1)C(=O)NCc1ccccc1)c1ccco1 [KP-227, (S)—N-(1-(Benzylamino)-1-oxo-3-(piperazin-1-yl)propan-2-yl)furan-2-carboxamide]
- remaining activity at 100 µM (PAD4 [1]): 100 ± 1.3%
- remaining activity at 1000 µM (PAD4 [1]): 82.2 ± 2.4%
- remaining activity at 100 µM (PAD2): 63.7 ± 0.6%
- remaining activity at 1000 µM (PAD2): 68.2 ± 2.3%

Structure (SMILES): O=C(N[C@@H](CC(=O)N1CCNCC1)C(=O)Nc1ccccc1)c1ccco1 [KP-230]
- remaining activity at 100 µM (PAD4 [1]): 96.9 ± 7.6%
- remaining activity at 1000 µM (PAD4 [1]): 82.4 ± 1.7%
- remaining activity at 100 µM (PAD2): 55.1 ± 0.5%
- remaining activity at 1000 µM (PAD2): 33.5 ± 0.4%

Structure (SMILES): O=C(N[C@@H](CCO)C(=O)Nc1ccccc1)OCc1ccccc1 [KP-231]
- remaining activity at 100 µM (PAD4 [1]): 100 ± 4.6%
- remaining activity at 1000 µM (PAD4 [1]): 82.3 ± 3.7%
- remaining activity at 100 µM (PAD2): 44.4 ± 0.5%
- remaining activity at 1000 µM (PAD2): 45.5 ± 1.1%

Structure (SMILES): CC(C)NC(=O)[C@H](CCn1ccnc1)NC(=O)c1ccco1 [KP-286, (S)—N-(4-(1[H]-imidazol-1-yl)-1-(isopropylamino)-1-oxobutan-2-yl) furan-2-carboxamide]
- IC50 (CHO cells): 546 ± 136 µM
- Ki (PAD1 [2]): 964 ± 689 µM
- Ki (PAD2; [6]): 554 ± 93 µM
- Ki (mPAD2): 554 ± 93 µM
- Ki (PAD1 [3]): 2500 ± 1780 µM

Structure (SMILES): CC(C)NC(=O)[C@H](CCN1CCN(C)CC1)NC(=O)c1ccco1 [KP-289, (S)—N-(1-(Isopropylamino)-4-(4-methylpiperazin-1-yl)-1-oxobutan-2-yl)furan-2-carboxamide]
- IC50 (CHO cells): > 2000 µM
- Ki (PAD4 [1]): 488 ± 47 µM
- Ki (PAD2; [6]): 1790 ± 2420 µM
- Ki (mPAD2): 1840 ± 2420 µM
- Selectivity ratio of inhibition, mPAD2 (PAD4) (mPAD2): 0.3 (PAD4)
- Ki (PAD4 [4]): 488 ± 47 µM
- Selectivity ratio of inhibition, hPAD4 (PAD2) (PAD4 [4]; hPAD4 versus PAD2): 3.7 (PAD2)

Structure (SMILES): CC(C)NC(=O)[C@H](CN1CCN(C)CC1)NC(=O)N1CCOCC1 [KP-291]
- PAD4 Ki ± std error (PAD4 [1]): No inhibition up to 10 mM
- PAD2 Ki ± std error (PAD2; Table 5): No inhibition up to 10 mM
- PAD1 Ki ± std error (PAD1 [3]): No inhibition up to 10 mM

Structure (SMILES): CC(C)NC(=O)[C@H](CCN1CCN(C)CC1)NC(=O)C1CCCCC1 [KP-295, (S)—N-(1-(Isopropylamino)-4-(4-methylpiperazin-1-yl)-1-oxobutan-2yl) cyclohexanecarboxamide]
- PAD4 Ki ± std error (PAD4 [1]): No inhibition up to 10 mM
- PAD2 Ki ± std error (PAD2; Table 5): No inhibition up to 10 mM
- Ki (mPAD2): > 10000 µM
- Ki (PAD4 [4]): > 10000 µM

Structure (SMILES): O=C(NCc1ccccc1)[C@H](Cn1ccnc1)NC(=O)N1CCCCC1 [KP-304]
- PAD4 Ki ± std error (PAD4 [1]): No inhibition up to 10 mM
- Ki (PAD2; [6]): 5300 ± 7830 µM

Structure (SMILES): CC(C)(C)OC(=O)N[C@@H](CN=[N+]=[N-])C(=O)NCc1ccccc1 [KP-306]
- PAD4 Ki ± std error (PAD4 [1]): No inhibition up to 10 mM
- PAD2 Ki ± std error (PAD2; Table 5): No inhibition up to 10 mM
- PAD1 Ki ± std error (PAD1 [3]): No inhibition up to 10 mM

Structure (SMILES): CN(C)[C@@H]1C(O)=C(C(N)=O)C(=O)[C@@]2(O)C(O)=C3C(=O)c4c(O)ccc(Cl)c4[C@@](C)(O)[C@H]3C[C@@H]12 [chlortetracycline]
- IC50 (PAD enzymes): 100 µM

The next lines start with results.

- remaining activity at 100 µM (PAD4 [1]): 78.7 ± 9.5%
- remaining activity at 1000 µM (PAD4 [1]): 62.2 ± 2.7%
- remaining activity at 100 µM (PAD2): 86.6 ± 3%
- remaining activity at 1000 µM (PAD2): 70.8 ± 1.7%
Structure (SMILES): COC(=O)[C@H](CN1CCNCC1)NC(=O)c1ccco1 [KP-225, (S)-Methyl 2-(furan-2-carboxamido)-3-(piperazin-1-yl)propanoate]

- remaining activity at 100 µM (PAD4 [1]): 96.4 ± 10.4%
- remaining activity at 1000 µM (PAD4 [1]): 82.1 ± 7.2%
- remaining activity at 100 µM (PAD2): 58.6 ± 3.6%
- remaining activity at 1000 µM (PAD2): 31.8 ± 4.9%
Structure (SMILES): O=C(N[C@@H](CCN1CCNCC1)C(=O)NCc1ccccc1)c1ccco1 [KP-228, (S)—N-(1-(Benzylamino)-1-oxo-4-(piperazin-1-yl)butan-2-yl)furan-2-carboxamide]

- remaining activity at 100 µM (PAD4 [1]): 100 ± 5.5%
- remaining activity at 1000 µM (PAD4 [1]): 100 ± 2.6%
- remaining activity at 100 µM (PAD2): 54 ± 2.7%
- remaining activity at 1000 µM (PAD2): 63.3 ± 2%
Structure (SMILES): O=C(Nc1ccccc1)[C@H](CC(=O)N1CCNCC1)NC(=O)N1CCOCC1 [KP-229]

- Ki (PAD1 [2]): > 10000 µM
- Ki (PADs): 200 to 500 µM
- PAD4 Ki ± std error (PAD4 [1]): No inhibition up to 10 mM
- Ki (PAD2; [6]): 600 ± 1330 µM
- Ki (mPAD2): > 10000 µM
- Ki (PAD4 [4]): > 10000 µM
Structure (SMILES): CC(C)NC(=O)[C@H](CCN1CCN(C)CC1)NC(=O)N1CCOCC1 [KP-287, (S)—N-(1-(Isopropylamino)-4-(4-methylpiperazin-1-yl)-1-oxobutan-2-yl)morpholine-4-carboxamide]
- IC50 (CHO cells): > 2000 µM
- PAD1 Ki ± std error (PAD1 [3]): Some inhibition but IC50 not calculated - no Ki

- inhibitor efficacy towards hPAD1 in comparison to other isozymes (PAD1 [2]): at least 3 fold
- Ki (PAD1 [2]): 353 ± 23 µM
- Selectivity ratio of inhibition, hPAD1 (PAD2) (PAD1 [2]; hPAD1 versus PAD2, ratios greater than 2-fold suggest selectivity): 2.8
- Selectivity ratio of inhibition, hPAD1 (PAD4) (PAD1 [2]; hPAD1 versus PAD4): 1.6
- Ki (PAD4 [1]): 591 ± 77 µM
- Ki (PAD2; [6]): 176 ± 62 µM
- Ki (mPAD2): 1000 ± 876 µM
- Selectivity ratio of inhibition, mPAD2 (PAD1) (mPAD2; mPAD2 versus PAD1): 0.4
- Selectivity ratio of inhibition, mPAD2 (PAD4) (mPAD2): 0.6
- Ki (PAD4 [4]): 591 ± 77 µM
- Selectivity ratio of inhibition, hPAD4 (PAD1) (PAD4 [4]; hPAD4 versus PAD1): 0.6
- Ki (PAD1 [3]): 914 ± 59 µM
Structure (SMILES): CC(C)NC(=O)[C@H](CCn1cnc(CC#N)c1)NC(=O)c1ccco1 [KP-288, (S)—N-(4-(4-(Cyanomethyl)-1[H]-imidazol-1-yl)-1-(isopropylamino)-1-oxobutan-2-yl)furan-2-carboxamide]
- IC50 (CHO cells): > 2000 µM

- PAD4 Ki ± std error (PAD4 [1]): No inhibition up to 10 mM
Structure (SMILES): CC(C)NC(=O)[C@H](CN1CCN(C)CC1)NC(=O)N1CCCCC1 [KP-290]

- Ki (PAD4 [1]): ~14900 µM
Structure (SMILES): CC(C)NC(=O)[C@H](Cn1ccnc1)NC(=O)N1CCOCC1 [KP-292]

- Ki (PAD4 [1]): 1240 ± 1390 µM
- Ki (PAD2; [6]): 662 ± 210 µM
- Ki (PAD1 [3]): 785 ± 384 µM
Structure (SMILES): COC(=O)[C@H](Cn1ccnc1)NC(=O)c1ccco1 [KP-298]

- Ki (PAD4 [1]): 1070 ± 427 µM
- Ki (PAD2; [6]): 739 ± 339 µM
- PAD1 Ki ± std error (PAD1 [3]): No inhibition up to 10 mM
Structure (SMILES): O=C(N[C@@H](Cn1ccnc1)C(=O)OCc1ccccc1)c1ccco1 [KP-300]

- Ki (PAD1 [2]): > 10000 µM
- Ki (PADs): 200 to 500 µM
- PAD4 Ki ± std error (PAD4 [1]): No inhibition up to 10 mM
- PAD2 Ki ± std error (PAD2; Table 5): No inhibition up to 10 mM
- Ki (mPAD2): > 10000 µM
- Ki (PAD4 [4]): > 10000 µM
- PAD1 Ki ± std error (PAD1 [3]): No inhibition up to 10 mM
Structure (SMILES): O=C(N[C@@H](CCn1ccnc1)C(=O)NCc1ccccc1)c1ccco1 [KP-301, (S)—N-(1-(Benzylamino)-4-(1 [H]-imidazol-1-yl)-1-oxobutan-2-yl) furan-2-carboxamide]

- Ki (PAD2; [6]): 58 ± 5 µM
- Ki (PAD1 [3]): 147 ± 52 µM
Structure (SMILES): Cn1cccc1C(=O)N[C@@H](Cn1ccnc1)C(=O)NCc1ccccc1 [KP-305]

- Ki (PAD4 [1]): 1450 ± 187 µM
- Ki (PAD2; [6]): 1430 ± 186 µM
- Ki (PAD1 [3]): 3430 ± 1940 µM
Structure (SMILES): CC(C)(C)OC(=O)N[C@H](CCN=[N+]=[N-])C(=O)NCc1ccccc1 [KP-310]

- PAD4 Ki ± std error (PAD4 [1]): No inhibition up to 10 mM
- PAD2 Ki ± std error (PAD2; Table 5): No inhibition up to 10 mM
- PAD1 Ki ± std error (PAD1 [3]): No inhibition up to 10 mM
Structure (SMILES): CC(C)(C)OC(=O)N[C@H](CCO)C(=O)NCc1ccccc1 [KP-311]

- Ki (PAD1 [2]): > 10000 µM
- Ki (PAD1 [3]): 77700 ± 91500 µM
Structure (SMILES): O=C(N[C@@H](CCn1ccnn1)C(=O)NCc1ccccc1)c1ccc(F)cc1 [KP-316, (S)—N-(1-(Benzylamino)-1-oxo-4-(1[H]-1,2,3-triazol-1-yl)butan-2-yl)-4-fluorobenzamide]
- PAD4 Ki ± std error (PAD4 [1]): Some inhibition but IC50 can't be calculated - no Ki
- PAD2 Ki ± std error (PAD2; Table 5): Some inhibition but IC50 can't be calculated - no Ki
